Assays:
[1] = test system: rats with L5 spinal nerve ligation (SNL model); test: Spinal nerve ligation (L5) neuropathic pain model, mechanical threshold with von Frey filaments (Example 4); format: in vivo, rat; conditions: gabapentin 50 mg/kg i.p.
Excerpt: A total of 18 Sprague-Dawley (CD sub-strain) young adult (weight: 150-175 g) male rats were purchased from Harlan Sprague Dawley Company (Indianapolis, Ind.), Alabama colony. The rats were kept three per cage and had free access to food and water. Animals were kept in a room with a reversed light-dark cycle (light: 8:00 PM-8:00 AM) for 1 week before experimental manipulations. Ten rats were allocated to the present study. Eight rats were allocated to the study of Example 5, below.
(§1) The spinal nerve ligation (SNL) model of neuropathic pain was produced in all rats as described by Kim and Chung (Pain, 50, 355-363, 1992). Briefly, under gaseous anesthesia using halothane (3% for induction and 1.5% for maintenance) in oxygen, the left L5 spinal nerve was exposed by removing the paraspinal muscles and the transverse process of the L6 vertebra. The very proximal portion of the L5 spinal nerve was tightly ligated with 6-0 silk suture. The wounds were closed and anesthesia was discontinued. Rats were kept on a heated blanket until they had completely recovered from anesthesia.
OPC-14523 was dispersed in 0.5% tragacanth in distilled water at 20 mg/ml. It was administered as a oral injection in a dose of 100 mg/kg body weight. Gabapentin was prepared at 10 mg/ml in saline and was administered at 50 mg/kg body weight i.p. Gabapentin is a drug that was originally developed as an anticonvulsant but is now widely used as an analgesic for neuropathic pain (Abdi et al., Anesthesia & Analgesia 87:1360-1366 (1998)).
Ten rats were utilized in a Latin-square-design study comparing the activity of OPC-14523 and other compounds against neuropathic pain. Behavioral tests were conducted twice (1 day and 1 hour) before, as well as 1 and 4 days after, the neuropathic surgery. […] The ten rats were randomly divided into five groups of two rats each. […]
This procedure was repeated five times. […] The result was that all ten animals received each of the indicated five compounds in random order and then had mechanical thresholds determined at the indicated times.
Behavioral tests were conducted in a non-blind fashion. The foot withdrawal threshold to mechanical stimuli applied to the paw (mechanical threshold) was measured, as an indicator of mechanical sensitivity of the affected paw. The foot withdrawal threshold was measured using von Frey filaments. […] The mechanical thresholds were measured by using the “up-and-down” method (Chaplan et al., J. Neurosci. Methods 53(1):55-63, 1994), following the procedures described in previous studies (Park et al., Pain 87(2):171-179, 2000; Xie et al., J. Pain 2(5):270-278, 2001; Baik et al., J. Pain 4:212-221, 2003). […]

[2] = test system: rats with L5 spinal nerve ligation (SNL model); test: Spinal nerve ligation (L5) neuropathic pain model, von Frey filaments, dose range (Example 5); format: in vivo, rat; conditions: gabapentin 100 mg/kg p.o.
Excerpt: as §1
Behavioral tests were conducted in a non-blind fashion. The foot withdrawal threshold to mechanical stimuli applied to the paw (mechanical threshold) was measured, as an indicator of mechanical sensitivity of the affected paw. The foot withdrawal threshold was measured using von Frey filaments. It is generally thought that von Frey filaments are more sensitive than electronic von Frey probes for measuring tactile stimulation. The mechanical thresholds were measured by using the “up-and-down” method (Chaplan et al., J. Neurosci. Methods 53(1):55-63, 1994), following the procedures described in previous studies (Park et al., Pain 87(2):171-179, 2000; Xie et al., J. Pain 2(5):270-278, 2001; Baik et al., J. Pain 4:212-221, 2003). In brief, rats were placed in a transparent plastic box on a metal wire mesh floor. To determine the threshold stiffness required for 50% paw withdrawal, a series of eight von Frey filaments with approximately equal logarithmic incremental (0.22) von Frey values (3.65, 3.87, 4.10, 4.31, 4.52, 4.74, 4.92, and 5.16) were used. Von Frey (VF) values are logarithmically related to gram (g) values (VF=log (10,000×g)). The chosen von Frey values are therefore equivalent to 0.45, 0.74, 1.26, 2.04, 3.31, 5.50, 8.32, and 14.45 in gram value, respectively. Starting with filament 4.31, von Frey filaments were applied perpendicularly to the ventral surface of the proximal part of the third or fourth toe for 2-3 seconds. Whenever a positive response to a stimulus occurred (paw withdrawal), the next smaller von Frey hair was applied. Whenever a negative response occurred, the next larger one was applied. The test was continued until the response of six stimuli after the first change in response had been obtained or the test had reached either end of the spectrum of the von Frey set.
The 50% threshold value was then calculated using Dixon's formula (Dixon, Ann. Rev. Phar. Tox. 20:441-462, 1980): 50% threshold=X+kd, where X is the value of the final von Frey hair used (in log units), k is the tabular value for the pattern of positive/negative responses, and d is the mean difference between stimuli in log units (0.22). In the cases where continuous positive or negative responses were observed all the way out to the end of the stimulus spectrum, values of 3.54 or 5.27 were assigned, respectively, by assuming a value of (−/+) 0.5 for k in these cases (Dixon, supra, 1980). Outcome of behavioral data were expressed as von Frey values (maximum range from 3.54 to 5.27) and plotted in a linear scale.
Data were expressed as the mean±standard errors of mean (SEM). Differences in mechanical thresholds at various times after injections were tested using two-way (time and group factors) analysis of variance (ANOVA), followed by the Duncan's post-hoc test for multiple comparisons. Statistical analyses were done using the SAS® software program (SAS Institute Inc, Cary, N.C.). Two-tailed p-values<0.05 were considered to be significant.
This experiment was conducted on 8 rats in a Latin-square design examining a dose response of OPC-14523. Gabapentin was prepared at 10 mg/ml in 0.5% tragacanth and administered at 100 mg/kg p.o. Behavioral tests were conducted in a blind fashion twice (1 day and 1 hour) before as well as 1 and 4 days after the neuropathic surgery. […] These 8 rats were randomly divided into 6 groups of 1-2 rats. […]

## NCC1(CC(=O)O)CCCCC1 [Gabapentin, gabapentin, reference compound]
[1]
  level of mechanical threshold increase relative to threshold prior to ligation: about half of the mechanical threshold observed prior to the ligation
[1]; 0.5-6 hours
  effect on mechanical threshold of the lesioned paw for foot withdrawals: significantly increased
[2]
  effect on mechanical threshold of the lesioned paw for foot withdrawals: significant increase
